In patent US20060280725A1, “Compositions and methods of treating and diagnosing hepatoma” (priority 2003, published 2006):

Legend:
[1] = system: hepatoma cells; assay: Glutamine transport after siRNA1 treatment; type: cell-based, human
Description: (§1) FIG. 16. […] Panel C are photos from the experiment of panel B.
(§2) The physiological effects of downregulating ASCT2 expression by administration of siRNA1 in hepatoma cells were studied. Glutamine transport, which was measured as nanomoles of glutamine per milligram of total protein per 30s, was examined at 24 hours and at 48 hours in Lipofectamine treated cells and Lipofectamine+50 nM siRNA1. […] Cell counts were made at 48 hours of hepatoma cultures, each of which were started with the same number of viable cells, receiving either Lipofectamine™ 200 alone or Lipofectamine™ 200 plus siRNA1. After 48 hours, a 40% reduction in the number of cells that had received isRNA1 (which comprises SEQ ID NO:3) relative to control cells was observed.

[2] = system: hepatoma cells; assay: Cell counts after siRNA1 treatment; type: cell-based, human
Description: as §1, §2

[3] = system: ASCT2 mRNA; assay: Northern blot analysis of ASCT2 mRNA after siRNA transfection; type: cell-based, human
Description: FIG. 15. […] B is the phospho-imager quantification of the bands in A. C is the concentration curve for siRNA1, showing that 50 nM is sufficient for maximum silencing of ASCT2 expression.
siRNAs that are specific to ASCT2 were designed using several known algorithms and then checked for specificity. Four (4) siRNAs, i.e., siRNA1 (which comprises SEQ ID NO:3), siRNA2 (which comprises SEQ ID NO:4), siRNA3 (which comprises SEQ ID NO:5), and siRNA4 (which comprises SEQ ID NO:6), were synthesized. SK-Hep cells were transfected with 50 nM concentration of any one of siRNA1, 2, 3 or 4 using Lipofectamine™ 2000 (Invitrogen™ life technologies) based on the protocols set forth in Gitlin, L., Karelsky, S., and Andino, R. (2002), Nature 418: 430-434; Yu, J. Y., DeRuiter, S. L., and Turner, D. L. (2002), Proc. Nat. Acad. Sci. USA 99:6047-6052; and “Transfecting siRNA into Mammalian Cells Using Lipofectamine™ 2000,” Form No. 18057N, Doc. Rev. 102802 by Invitrogen Corporation (2002), which are herein incorporated by reference. At 24 hours and at 48 hours, RNAs were extracted from the transfected cells and the expression of ASCT2 was examined by Northern blot analysis (see FIG. 15A).
Hepatoma cells were then treated with Lipofectamine™ 200 without siRNA1, with 12.5 nM, 25 nM, 50 nM or 100 nM siRNA1.

[4] = system: ASCT2/ATB^0 RNA; assay: Northern blot analysis of ASCT2/ATB0 silencing in six human liver cancer cell lines; type: cell-based; conditions: 50 nM
Text: FIG. 17. […] Panel B are the phospho-imager quantification results of the blot shown in panel A (normalized to beta actin mRNA levels).
RNA was extracted from six (6) human liver cancer cell lines and subject to northern blot analysis using ASCT2/ATB^0 DNA as a probe. Actin RNA was probed as a baseline control. […] Those autoradiograms were subjected to phospho-imager quantitative analysis and normalized to actin RNA expression (FIG. 17, panel B). The designation “L” refers to Liopfectamine™ 200 alone, and “S” refers to Liopfectamine™ 200 plus siRNA at 50 nM.

In the case of “siRNA1: siRNA specific to ASCT2, which comprises SEQ ID NO:3 (AGGAGGTGCTCGATTCGTT; listed as DNA, chemistry not given here; listed as Homo sapiens)”, the “reduction in glutamine transport relative to controls” value ([1]; 50 nM, 24 and 48 hours, vs Lipofectamine alone, p<0.01) is reported as “greater than 50%”, the “ASCT2 function (glutamine uptake)” value ([1]; FIG. 16 panel A) is reported as “substantially decreases” and the “cellular loss compared to transfection reagent alone” value ([2]; FIG. 16 panel B) is reported as “leads to cellular loss (death)”. For the same substance, the “reduction in the number of cells relative to control cells” value ([2]; after 48 hours, vs Lipofectamine alone) was 40%, the “relative effectiveness at reducing ASCT2 expression (mRNA relative to actin)” value ([3]; SK-Hep, 50 nM siRNA, 24 and 48 hours) was “most effective of the four siRNAs” and the “concentration sufficient for maximum silencing of ASCT2 expression” value ([3]; tested 12.5, 25, 50, 100 nM) was 50 nM. The “relative ASCT2/ATB^0 expression (normalized to actin RNA)” value [4] was “significant reduction”.
